# Laboratory results taken from article PMC11467779, “New anti-ovarian cancer quinolone derivatives acting by modulating microRNA processing machinery” (RSC Medicinal Chemistry, 2024).
# Assays:
# TRBP = molecular target: T1, TRBP (Homo sapiens, UniProt Q15633); assay: Cellular thermal shift assay of TRBP (HEK-293T lysates, Western blot); format: binding; parameters: endogenous in cells; host or cells: HEK-293T
# T1 sequence (Q15633 1-366): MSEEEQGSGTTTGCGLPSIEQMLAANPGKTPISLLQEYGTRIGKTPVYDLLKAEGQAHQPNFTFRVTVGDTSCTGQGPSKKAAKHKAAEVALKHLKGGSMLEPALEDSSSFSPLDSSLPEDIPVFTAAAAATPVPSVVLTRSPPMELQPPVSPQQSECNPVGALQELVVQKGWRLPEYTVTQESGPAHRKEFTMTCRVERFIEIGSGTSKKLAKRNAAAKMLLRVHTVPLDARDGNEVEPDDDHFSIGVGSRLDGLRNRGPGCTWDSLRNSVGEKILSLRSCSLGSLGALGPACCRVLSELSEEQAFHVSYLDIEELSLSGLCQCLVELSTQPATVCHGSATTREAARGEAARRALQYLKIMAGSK
# Protocol: HEK-293T cells were harvested in PBS supplemented with protease inhibitor cocktail (complete, EDTA-free, Roche). Cell suspensions were freeze-thawed three times in liquid nitrogen and then centrifuged (20 000g) for 10 min at 4 °C. The lysates were diluted at concentration of 2 μg μL^−1 and then treated with DMSO and 50 μM of 33 or with increasing concentration of 33 for 30 min at 37 °C. After this incubation the lysates were divided into equal parts (50 μL) and heated individually at designated temperatures for 3 min. The heated samples were cooled at room temperature for 3 min and centrifuged (20 000g) for 10 min at 4 °C. The supernatants were transferred to new tubes and analyzed by use for western blotting.
# Lysates were loaded on 4–12% bis–tris-acrylamide gel (Life Technologies) and transferred to a nitrocellulose membrane. The membrane was blocked in 5% milk and hybridized with α-TRBP (15753-1-AP Proteintech), α-GAPDH (sc-25778, Santa Cruz Biotechnology), α-c-PARP (Bioss Antibodies, BSM-52408R), α-BCLXL (mAb #2764, Cell Signaling Technology) and α-β-actin (A3854, Sigma) antibodies. All the images were captured using the ChemiDocTM Touch Imaging System (Bio-Rad), and the densitometric analyses were performed using the associated Image Lab software (Bio-Rad).
# OVCA433 = assay: Antiproliferative effect against OVCA433 (GI50); format: cell-based; conditions: Homo sapiens, 72 hours of treatment, cell count
# Protocol: SKOV-3, A2780 and A2780 CIS were cultured and maintained, as previously described,[50] at 37 °C in RPMI 1640 medium (Euroclone) supplemented with 10% fetal bovine serum (FBS; Euroclone), L-glutamine and penicillin/streptomycin (SIGMA-ALDRICH). OVCA433, HEK-293T, HeLa, HCCLM3, SK-Hep-1, MCF-7, A549 and HCT-116 cells were maintained in DMEM medium (Euroclone) containing 10% FBS (Euroclone), L-glutamine and penicillin/streptomycin (SIGMA-ALDRICH). Wi-38 cells were cultured in DMEM medium (Euroclone) supplemented with 10% FBS (Euroclone), L-glutamine and penicillin/streptomycin (SIGMA-ALDRICH), and 1% non-essential amino acids (NEAA; Euroclone). The cultures were maintained in a constant temperature incubator at 37 °C with 5% CO2. […] Once cell adhesion had been promoted, the compounds were added to the culture medium. After 72 hours of treatment, the cells were counted, and the data analyzed by linear regression. Each experiment was carried out three times in triplicate and three separate cell counts were made for each sample. […] Afterwards, the concentration range was narrowed to the relative value obtained in the first evaluation in order to obtain an accurate value.
# [1] = system: shRNA to siRNA maturation (GAPDH mRNA); assay: RNAi enhancing activity (shRNA to siRNA maturation, GAPDH mRNA in HEK-293T_shGAPDH); format: cell-based, human; conditions: 50 μM, 48 hours
# Protocol: HEK-293T_shSCR and HEK-293T_shGAPDH were treated with 50 μM of enoxacin and 33 for 48 hours before RNA extraction and expression analysis.
# Lentiviral particles were produced by calcium phosphate transient transfection of HEK-293T cells with specific lentiviral plasmids (shGAPDH: TRCN0000445616 and shSCR: TRCN0000015937 from SIGMA-ALDRICH) together with the packaging plasmids (pLP1and pLP2) and the envelope plasmid pLP/VSVG. For each lentiviral plasmid one 150 mm plate of HEK293T cells was used for transfection. After 14–16 hours the medium was replaced with complete medium supplemented with 1 mM sodium butyrate (SIGMA-ALDRICH). The collection of medium containing lentiviral particles occurs 48 h and 72 h after transfection; complete medium supplemented with sodium butyrate was added after the first collection. […]
# Total RNA was extracted using the Direct-zol RNA MiniPrep kit (Zymo Research) with on-column DNase treatment, according to the manufacturer's instructions. Reverse transcription was carried out with SuperScript VILO cDNA Synthesis Kit (Life Technologies) and the cDNA samples were analyzed by qRT-PCR using PowerUp SYBR Green Master Mix (Thermo Fisher Scientific). For miR-21 expression analysis total RNA was retrotranscribed using miRCURY® LNA® RT Kit (Qiagen) and the cDNA was analyzed by using miRCURY® LNA® miRNA PCR Assay (Qiagen). […]
structure (smiles),measurement,setting,value
"O=C(O)c1cn(C2CC2)c2cc(N3CCc4ccccc4C3)c(F)cc2c1=O [Compound 33, 1-Cyclopropyl-7-(3,4-dihydroisoquinolin-2(1H)-yl)-6-fluoro-4-oxo-1,4-dihydroquinoline-3-carboxylic acid]",thermal shift of TRBP versus DMSO,"TRBP; 50 μM, different temperatures",significant thermal shift
same,concentration dependency of TRBP destabilization,"TRBP; increasing concentration, 55 °C",destabilization of TRBP in a concentration-dependent manner
same,GI50,OVCA433,31 ± 6.75 µM
same,RNAi enhancing effect (GAPDH mRNA decrease),[1],modest but significant RNAi enhancing effect
